Assay results reported in ChEMBL document CHEMBL1909046, “DrugMatrix in vitro pharmacology data”.

Experiments:
[1] = DRUGMATRIX: Platelet-Derived Growth Factor (PDGF) radioligand binding (ligand: [125I] PDGF); format: cell-based; details: nih3t3; Not Active = under 50% inhibition at 10 µM
Thromboxane-A synthase = target: T1, Thromboxane-A synthase (Homo sapiens, UniProt P24557); assay: biochemical; format: tissue-based, Platelet; details: platelet;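 note: enzyme inhibition assay with PGH2 supplied as substrate; in other assays of this panel Not Active means under 50% inhibition at 10 µM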
T1 sequence (P24557 whole entry): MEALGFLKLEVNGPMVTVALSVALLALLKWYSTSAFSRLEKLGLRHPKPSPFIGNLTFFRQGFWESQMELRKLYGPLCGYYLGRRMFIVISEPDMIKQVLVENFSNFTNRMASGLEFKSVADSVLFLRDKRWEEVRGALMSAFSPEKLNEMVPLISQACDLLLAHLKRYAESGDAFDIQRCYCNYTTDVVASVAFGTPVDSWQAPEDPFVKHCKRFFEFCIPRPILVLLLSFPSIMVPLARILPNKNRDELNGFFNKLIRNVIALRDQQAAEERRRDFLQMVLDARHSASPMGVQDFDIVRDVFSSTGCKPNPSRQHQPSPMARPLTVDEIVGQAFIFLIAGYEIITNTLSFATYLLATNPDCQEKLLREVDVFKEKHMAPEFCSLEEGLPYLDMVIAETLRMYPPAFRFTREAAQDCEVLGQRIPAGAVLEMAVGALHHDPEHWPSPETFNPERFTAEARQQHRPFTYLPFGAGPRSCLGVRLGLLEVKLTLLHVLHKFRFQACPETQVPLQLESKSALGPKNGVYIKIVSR

[2] = target: T2, Alpha-1B adrenergic receptor (Rattus norvegicus, UniProt P15823); assay: DRUGMATRIX: Alpha-1B adrenergic receptor radioligand binding (ligand: prazosin); format: cell membranes, Wistar, Liver, Membrane; details: Not Active = under 50% inhibition at 10 µM
T2 sequence (P15823 whole entry): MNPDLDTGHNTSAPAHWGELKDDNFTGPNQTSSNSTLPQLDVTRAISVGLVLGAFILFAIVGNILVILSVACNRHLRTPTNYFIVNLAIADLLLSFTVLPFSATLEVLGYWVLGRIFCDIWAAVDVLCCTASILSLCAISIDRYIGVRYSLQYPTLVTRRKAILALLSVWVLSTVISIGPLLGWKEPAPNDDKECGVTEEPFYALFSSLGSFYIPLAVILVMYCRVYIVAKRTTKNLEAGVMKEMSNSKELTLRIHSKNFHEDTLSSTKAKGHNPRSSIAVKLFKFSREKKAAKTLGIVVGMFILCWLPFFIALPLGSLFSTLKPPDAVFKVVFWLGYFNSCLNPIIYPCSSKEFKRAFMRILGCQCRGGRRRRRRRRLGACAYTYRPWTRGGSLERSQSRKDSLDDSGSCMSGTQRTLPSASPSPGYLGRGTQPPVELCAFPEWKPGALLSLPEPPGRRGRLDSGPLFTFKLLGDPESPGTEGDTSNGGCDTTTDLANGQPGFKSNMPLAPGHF

[3] = target: Beta-2 adrenergic receptor (Homo sapiens, UniProt P07550); assay: DRUGMATRIX: Adrenergic beta2 radioligand binding (ligand: [3H] CGP-12177); format: cell membranes, CHO, Membrane; details: cho; Not Active = under 50% inhibition at 10 µM
[4] = DRUGMATRIX: Glutamate, NMDA, Agonism radioligand binding (ligand: [3H] CGP-39653); format: cell membranes, Rattus norvegicus, Wistar, Cerebral cortex, Membrane; details: Not Active = under 50% inhibition at 10 µM
Cannabinoid receptor 1 = Cannabinoid receptor 1 (Homo sapiens, UniProt P21554); format: cell membranes, Chem-1, Membrane; details: chem-1; note: in other assays of this panel Not Active means under 50% inhibition at 10 µM
Sequence of Cannabinoid receptor 1 (P21554 whole entry): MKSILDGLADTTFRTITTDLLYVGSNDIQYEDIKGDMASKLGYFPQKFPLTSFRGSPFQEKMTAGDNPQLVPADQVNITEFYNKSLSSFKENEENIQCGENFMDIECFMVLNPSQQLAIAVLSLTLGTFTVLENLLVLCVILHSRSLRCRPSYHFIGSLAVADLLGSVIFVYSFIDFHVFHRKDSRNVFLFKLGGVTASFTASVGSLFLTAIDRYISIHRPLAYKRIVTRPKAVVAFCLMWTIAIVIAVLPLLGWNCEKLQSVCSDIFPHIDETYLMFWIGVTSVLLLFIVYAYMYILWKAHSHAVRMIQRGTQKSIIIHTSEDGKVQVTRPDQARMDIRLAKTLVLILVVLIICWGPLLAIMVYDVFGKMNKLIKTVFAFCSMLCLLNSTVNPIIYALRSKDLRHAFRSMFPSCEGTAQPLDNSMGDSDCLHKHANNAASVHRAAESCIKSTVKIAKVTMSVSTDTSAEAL

Sequence of Beta-2 adrenergic receptor (P07550 whole entry): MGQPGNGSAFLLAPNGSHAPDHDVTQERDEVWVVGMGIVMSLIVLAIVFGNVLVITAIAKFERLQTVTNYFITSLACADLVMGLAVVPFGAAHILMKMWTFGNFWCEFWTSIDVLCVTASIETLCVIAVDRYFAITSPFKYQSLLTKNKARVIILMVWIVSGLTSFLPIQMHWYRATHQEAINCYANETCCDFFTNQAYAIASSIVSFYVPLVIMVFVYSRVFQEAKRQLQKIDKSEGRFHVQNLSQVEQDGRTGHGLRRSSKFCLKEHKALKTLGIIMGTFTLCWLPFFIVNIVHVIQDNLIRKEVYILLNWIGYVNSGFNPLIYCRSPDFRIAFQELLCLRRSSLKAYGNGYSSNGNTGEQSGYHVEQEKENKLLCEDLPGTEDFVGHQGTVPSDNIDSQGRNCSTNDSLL

O=C(c1ccccc1C(F)(F)F)N1CCC(Cc2ccccc2)CC1
Not Active: IC50 [1] | Ki [1] | IC50 (Thromboxane-A synthase) | IC50 [2] | IC50 [3] | IC50 [4] | Ki [4] | IC50 (Cannabinoid receptor 1)

O=C/C=C/c1ccccc1
Not Active: IC50 [1] | Ki [1] | IC50 (Thromboxane-A synthase) | IC50 [2] | IC50 [3] | IC50 [4] | Ki [4] | IC50 (Cannabinoid receptor 1)

Nc1ccc2c3c(cccc13)C(=O)NC2=O
Not Active: IC50 [1] | Ki [1] | IC50 (Thromboxane-A synthase) | IC50 [2] | IC50 [3] | IC50 [4] | Ki [4] | IC50 (Cannabinoid receptor 1)

COc1ccc(C(=O)N2CCCC2=O)cc1
Not Active: IC50 [1] | Ki [1] | IC50 (Thromboxane-A synthase) | IC50 [2] | IC50 [3] | IC50 [4] | Ki [4] | IC50 (Cannabinoid receptor 1)

O=c1cnn([C@@H]2O[C@H](CO)[C@@H](O)[C@H]2O)c(=O)[nH]1 [6-AZAURIDINE]
Not Active: IC50 [1] | Ki [1] | IC50 (Thromboxane-A synthase) | IC50 [2] | IC50 [3] | IC50 [4] | Ki [4] | IC50 (Cannabinoid receptor 1)

CC[C@H](C)[C@H]1O[C@]2(C=C[C@@H]1C)C[C@@H]1C[C@@H](C/C=C(\C)[C@@H](O[C@H]3C[C@H](OC)[C@@H](O[C@H]4C[C@H](OC)[C@@H](O)[C@H](C)O4)[C@H](C)O3)[C@@H](C)/C=C/C=C3\CO[C@@H]4[C@H](O)C(C)=C[C@@H](C(=O)O1)[C@]34O)O2.CO[C@H]1C[C@H](O[C@H]2[C@H](C)O[C@@H](O[C@@H]3/C(C)=C/C[C@@H]4C[C@@H](C[C@]5(C=C[C@H](C)[C@@H](C(C)C)O5)O4)OC(=O)[C@@H]4C=C(C)[C@@H](O)[C@H]5OC/C(=C\C=C\[C@@H]3C)[C@]54O)C[C@@H]2OC)O[C@@H](C)[C@@H]1O [ABAMECTIN]
Not Active: IC50 [1] | Ki [1] | IC50 (Thromboxane-A synthase) | IC50 [2] | IC50 [3] | IC50 [4] | Ki [4] | IC50 (Cannabinoid receptor 1)

NCCCC(O)(P(=O)(O)O)P(=O)(O)O [ALENDRONIC ACID]
Not Active: IC50 [1] | Ki [1] | IC50 (Thromboxane-A synthase) | IC50 [2] | IC50 [3] | IC50 [4] | Ki [4] | IC50 (Cannabinoid receptor 1)

Cc1nnc2n1-c1ccc(Cl)cc1C(c1ccccc1)=NC2 [ALPRAZOLAM]
Not Active: IC50 [1] | Ki [1] | IC50 (Thromboxane-A synthase) | IC50 [2] | IC50 [3] | IC50 [4] | Ki [4] | IC50 (Cannabinoid receptor 1)

Cn1c(=O)c2[nH]cnc2n(C)c1=O.Cn1c(=O)c2[nH]cnc2n(C)c1=O.NCCN [AMINOPHYLLINE]
Not Active: IC50 [1] | Ki [1] | IC50 (Thromboxane-A synthase) | IC50 [2] | IC50 [3] | IC50 [4] | Ki [4] | IC50 (Cannabinoid receptor 1)

CCC1(CCC(C)C)C(=O)NC(=O)NC1=O [AMOBARBITAL]
Not Active: IC50 [1] | Ki [1] | IC50 (Thromboxane-A synthase) | IC50 [2] | IC50 [3] | IC50 [4] | Ki [4] | IC50 (Cannabinoid receptor 1)

CC1(C)S[C@@H]2[C@H](NC(=O)[C@H](N)c3ccccc3)C(=O)N2[C@H]1C(=O)O [AMPICILLIN]
Not Active: IC50 [1] | Ki [1] | IC50 (Thromboxane-A synthase) | IC50 [2] | IC50 [3] | IC50 [4] | Ki [4] | IC50 (Cannabinoid receptor 1)

COc1ccc(C2C(=O)c3ccccc3C2=O)cc1 [ANISINDIONE]
Not Active: IC50 [1] | Ki [1] | IC50 (Thromboxane-A synthase) | IC50 [2] | IC50 [3] | IC50 [4] | Ki [4] | IC50 (Cannabinoid receptor 1)

O=C1O[C@H]([C@@H](O)CO)C(O)=C1O [ASCORBIC ACID]
Not Active: IC50 [1] | Ki [1] | IC50 (Thromboxane-A synthase) | IC50 [2] | IC50 [3] | IC50 [4] | Ki [4] | IC50 (Cannabinoid receptor 1)

CN1[C@@H]2CC[C@H]1C[C@@H](OC(=O)C(CO)c1ccccc1)C2 (stereo partly specified) [ATROPINE]
Not Active: IC50 [1] | Ki [1] | IC50 (Thromboxane-A synthase) | IC50 [2] | IC50 [3] | IC50 [4] | Ki [4] | IC50 (Cannabinoid receptor 1)

CC(C(=O)O)c1ccc2oc(-c3ccc(Cl)cc3)nc2c1 (stereo unspecified) [BENOXAPROFEN]
Not Active: IC50 [1] | Ki [1] | IC50 (Thromboxane-A synthase) | IC50 [2] | IC50 [3] | IC50 [4] | Ki [4] | IC50 (Cannabinoid receptor 1)

COc1ccc2cc3[n+](cc2c1OC)CCc1cc2c(cc1-3)OCO2.[Cl-] [BERBERINE CHLORIDE]
Not Active: IC50 [1] | Ki [1] | IC50 (Thromboxane-A synthase) | IC50 [2] | IC50 [3] | IC50 [4] | Ki [4] | IC50 (Cannabinoid receptor 1)

O=C(O)CCNC(=O)c1ccccc1 [BETAMIPRON]
Not Active: IC50 [1] | Ki [1] | IC50 (Thromboxane-A synthase) | IC50 [2] | IC50 [3] | IC50 [4] | Ki [4] | IC50 (Cannabinoid receptor 1)

CC(C)NCC(O)COc1cccc2[nH]ccc12 (stereo unspecified) [PINDOLOL]
Not Active: IC50 [1] | Ki [1] | IC50 (Thromboxane-A synthase) | IC50 [2] | IC50 [4] | Ki [4] | IC50 (Cannabinoid receptor 1)

COc1cc2nc(N3CCN(C(=O)c4ccco4)CC3)nc(N)c2cc1OC [PRAZOSIN]
Not Active: IC50 [1] | Ki [1] | IC50 (Thromboxane-A synthase) | IC50 [3] | IC50 [4] | Ki [4] | IC50 (Cannabinoid receptor 1)

CCCNCC(O)COc1ccccc1C(=O)CCc1ccccc1 (stereo unspecified) [PROPAFENONE]
Not Active: IC50 [1] | Ki [1] | IC50 (Thromboxane-A synthase) | IC50 [4] | Ki [4] | IC50 (Cannabinoid receptor 1)
